Assay results published in ChEMBL document CHEMBL4007391, “Tackling Fungal Resistance by Biofilm Inhibitors” (J Med Chem, 2017).

Test system: Candida albicans
Experiment: Disruption of biofilm of Candida albicans DAY185 assessed as death of biofilm hyphae after 24 hrs by XTT assay
Format: functional

C=C(C)[C@H](CC=C(C)C)C[C@]12C[C@H](CC=C(C)C)C(C)(C)[C@](CC=C(C)C)(C(=O)C(C(=O)c3ccc(O)c(O)c3)=C1O)C2=O showed an EC50 of 30 to 50 µM.
